Reference: US8772274B1, “Anti-cancer compositions and methods” (The Penn State Research Foundation, priority 2008, dated 2014)
Counter-ions that a name gives are not always drawn.

Legend:
[1] = system: PI3 kinase signaling in Caco-2 cells; test: Western blot analysis of Caco-2 cell lysates; type: cell-based
Protocol: For additional Western blot analysis, Caco-2 cell lysates are harvested by addition of lyses buffer containing 50 mM HEPES (pH 7.5), 150 mM NaCl, 10 mM EDTA, 10% glycerol, 1% Triton X-100, 1 mM sodium orthovanadate, 0.1 mM sodium molybdate, 1 mM phenylmethylsulfonyl fluoride, 20 μg/ml aprotinin, and 5 μg/ml leupeptin. Whole cell lysates are centrifuged (≦10,000×g) for 10 minutes at 4° C. to remove cell debris. Protein concentrations are quantitated using the BCA assay (Pierce; Rockford, Ill.), and 30 μg of lysate loaded per lane onto NuPAGE Gels (Life Technologies, Inc. Carlsbad, Calif.). Following electrophoresis, samples are transferred to polyvinylidene difluoride (PVDF) membrane (Pall Corporation, Pensacola, Fla.) and the blots probed with antibodies according to each supplier's recommendations: antibodies to PRAS40 and phosphorylated PRAS40 from Invitrogen (Invitrogen Corporation, Carlsbad, Calif.); antibodies to cyclin D1, p27, p21, and Erk2 from Santa Cruz Biotechnology (Santa Cruz, Calif.); and antibodies to Akt2, phosphorylated-Akt (Ser473), phosphorylated-Erk 1/2 and cleaved PARP from Cell Signaling Technology (Danvers, Mass.). Secondary antibodies conjugated with horseradish peroxidase are obtained from Santa Cruz Biotechnology (Santa Cruz, Calif.). Immunoblots are developed using the enhanced chemiluminescence (ECL) detection system (Pierce Biotechnology, Rockford, Ill.) (FIGS. 6A and 6B).

[2] = system: OVCAR-3 ovarian carcinoma cells; test: MTS cell viability assay, OVCAR-3; type: cell-based, human
Protocol: (§1) Growth inhibitory effects on cultured cells from human vertical growth phase (VGP) melanoma cell line WM115, Lung adenocarcinoma (A549), fibrosarcoma (HT-1080), prostate adenocarcinoma (PC-3), ovarian carcinoma (OVCAR-3), and breast adenocarcinoma (MDA-MB-231) are plated in 96 well plates at a density of 5×10^3 cells/well in 100 μl media. […] Dose response curves for each compound are generated and the IC50 values (μM) determined using GraphPad Prism software. Each experiment is replicated at least 3 times and the average IC50 (μM) values with standard error represented.

[3] = system: normal human fibroblast FF2441 and UACC 903 cells; test: Sensitivity of melanoma cells compared to normal cells; type: cell-based; details: FF2441 vs UACC 903; 2, 4, 6, 12 and 24 hours
Source text: Sensitivity of melanoma cells to PBISe is compared to normal cells. […] Thus, cultured cancer cells are 2-5 fold more sensitive to PBISe than normal cells.

[4] = system: HT-1080 fibrosarcoma cells; test: MTS cell viability assay, HT-1080; type: cell-based, human
Protocol: as §1

For `N=C(N)[Se]CCc1ccc(CC[Se]C(=N)N)cc1` [PBISe, s,s′-1,4-phenylene-bis(1,2-ethanediyl)bis-isoselenourea dihydrobromide], the “cleaved PARP” value [1] was “increase”, the “downstream pPRAS40 level” value [1] was “decreased” and the “pAkt and Akt2 levels” value [1] was “decreased”. The IC50 ([2]; Homo sapiens, OVCAR-3, 24 h, read-out: Inhibition Cancer Cells IC50, OVCAR-3 (Table III)) was 5.3 ± 0.65 µM, the “Fold increase in efficacy (PBIT/PBISe), OVCAR-3” value ([2]; ratio of IC50 PBIT/PBISe, OVCAR-3) was greater than 18.9 fold and the “fold higher concentrations required to kill fibroblasts compared to melanoma cells” value [3] was 2-5 fold. For the same compound, the IC50 ([4]; Homo sapiens, HT-1080, 24 h, read-out: Inhibition Cancer Cells IC50, HT-1080 (Table III)) was 3.2 ± 0.61 µM and the “Fold increase in efficacy (PBIT/PBISe), HT-1080” value ([4]; ratio of IC50 PBIT/PBISe, HT-1080) was greater than 31.2 fold.
